Laboratory results: patent publication US20090105189A1, “METHODS AND COMPOSITIONS FOR AMELIORATING OR INHIBITING DECLINE IN MEMORY OR INTELLIGENCE OR IMPROVING SAME” (priority 2006, published 2009)

How the values were obtained:
[1] = Brain CDP-choline levels after oral UMP in gerbils; format: in vivo, gerbil; details: UMP 1 mmole/kg by gavage, for 30 min after administration
Experimental: Brain tissue or cells was dissolved in methanol/chloroform (1:2 vol/vol), centrifuged, and the aqueous phase was dried under vacuum, resuspended in 100-200 μL water and separated by HPLC on an ion-exchange column (Alltech Hypersil APS-2, 5 μM, 250×4.6 mm). CDP-choline was eluted with a linear gradient of NaH2PO4 buffers A (1.75 mM NaH2PO4, pH 2.9) and B (500 mM, pH 4.5), which allowed resolution of CDP-choline from closely co-eluting substances such as UMP over 40 min. The retention time for CDP-choline was 9.5 min. Individual nucleotide peaks were detected by UV absorption at […], and were identified by comparison with the positions of authentic standards, as well as by the addition of nucleotide standards to selected samples.

Sprague Dawley rats [2] = experiment: Visible platform water maze task in EC and IC rats on UMP diet; format: in vivo, rat; details: UMP-supplemented diet
From the text: Four starting positions (north, south, east, west) were spaced around the perimeter of the tank, dividing the pool into four equal quadrants. For the visible platform version of the water maze, a white rubber ball (8 cm in diameter) was attached to the top of the submerged platform and protruded above the water surface. The platform could be used as a step to mount the ball to escape the water. A video camera was mounted directly above the water maze; this camera was linked to a computer with video tracking software to automatically record the escape latency (time to reach the platform), distance traveled (length of swim path taken to find the platform), and swim speed (HVS Image Ltd; Buckingham, UK). One week after completion of the 4-day/4 trials per day spatial training task, the rats from the above Example received 4 training sessions consisting of 4 trials (i.e., swims) per day. On each trial the animal was placed into the tank facing the wall at one of four designated start points (N, S, E, and W) and allowed to escape onto the visibly cued platform. A different starting point was used on each trial such that each starting point was used each day. In addition, the visible escape platform was placed in a different quadrant on each trial such that each of the four quadrants contained the escape platform once each day. […]

gerbils [3] = experiment: Working memory and reference memory assay (modified radial arm maze) in gerbils; format: in vivo, gerbil; details: 0.1% UMP diet, four weeks
From the text: Groups of ten gerbils fed control or 0.1% UMP diet for four weeks and trained to successfully find all of the food pellets as described above were then given a modified test, in which only two arms of the maze (but always the same two) contained food pellet rewards. In this test, a working memory error is one in which a gerbil revisits an arm from which it has already taken the pellet that day.

Fischer 344 rats = experiment: In vivo microdialysis of striatal neurotransmitter release in aged rats on UMP diet; design: species or system rat; details: for K+-evoked striatal DA release (basal = 100%): control 283±9%
[4] = Body weight of rats on UMP-supplemented diet; format: in vivo, rat
From the text: Animals were weighed weekly to ensure that UMP-treated and untreated rats were eating equivalent amounts of food. […] Also, there was no difference in body weight between the EC and IC groups.

gerbils [5] = experiment: Food pellet learning assay (radial arm maze) in gerbils; format: in vivo, gerbil; details: young adult gerbils, 0.1, 0.5 or 2.5% UMP chow, three weeks
Experimental: Male young adult gerbils fed control or UMP-containing chow (0, 0.1, 0.5 or 2.5%) ad lib for three weeks were tested in a radial arm maze, consisting of a central chamber with four branches primed with a small food pellet at the end of each. Before testing, animals were fasted overnight; each animal was then placed in the central chamber and allowed up to 180 seconds to find all of the pellets. A shorter time required to find the pellets is indicative of improved learning and spatial memory.

Sprague Dawley rats [6] = experiment: Hidden platform water maze and probe test in EC and IC rats on UMP diet; format: in vivo, rat; details: for Rate of acquisition of hidden platform water maze task: 0.1% UMP-2Na+ diet 3 months
Experimental: (§1) Behavioral training was carried out between 10:00 AM-2:00 PM, in a blinded manner. Rats received a 4-d training session consisting of 4 trials (i.e., swims) per day to locate the hidden platform (1.5 cm below the water surface), which remained in the same position across trials for individual animals (i.e. within one of 4 quadrants). On each trial the animal was placed into the tank facing the wall at one of 4 designated start points (N, S, E, and W) and allowed to escape onto the hidden platform. A different starting point was used on each trial such that each starting point was used once each day. […] After mounting the platform, rats remained on the platform for 20 seconds. Following each trial, animals were removed from the maze and placed in a holding cage for a 30 second inter-trial interval (ITI). The latency to mount the escape platform was used as a measure of task acquisition.
(§2) On day 5, the rats were given a probe test. For this, the platform was removed and the swim path and time spent searching in the quadrant of the pool that previously contained the platform were measured over 60 s. This provides a measurement for the retention of spatial memory and indicates whether a spatial strategy was used during hidden platform training.

[7] = Plasma uridine levels after oral UMP in healthy human subjects; format: in vivo; details: humans, oral UMP 500, 1000 or 2000 mg; baseline and 1, 2, 4, 8 hr
Experimental: 1-milliliter (mL) samples of heparinized plasma were spiked with 1 μg fluoro-uridine for use as an internal standard, then deproteinized by adding methanol (5 mL).
All steps were performed at 4° C. Boronate affinity columns (Affigel-601, Bio-Rad) were primed with two 5-mL ammonium acetate washes, samples were applied, and columns were washed again with ammonium acetate, after which the nucleosides were eluted with 0.1 N formic acid (7 mL). Eluates were lyophilized, then reconstituted in 100 μL water for HPLC analysis.
HPLC analysis was performed using a Beckman System Gold apparatus (Beckman Instruments) equipped with a Rainin Dynamax Microsorb C18 column (3 μm packing; 4.6×100 mm) at room temperature. The standard HPLC method is described in Lopez-Coviella et al, (J. Neurochem 65: 889-894, 1995). For modified HPLC, an isocratic elution buffer was used containing 0.004 N potassium phosphate buffer (pH 5.8) and 0.1% methanol instead of formic acid, flowing at 1 mL/min and heated to 35°.
Eight healthy subjects (5 male, 3 female, 27-67 years old) were instructed to fast overnight and given sequentially increasing doses (500, 1000, and 2000 mg) of disodium UMP (Numico, Wageningen, NL) at 7-8 AM on each of three days, separated by at least a three-day washout period. All subjects were given lunch. Blood samples were drawn over an eight-hour period into heparinized tubes. […]

Aging rats = experiment: Morris water maze in aging rats on UMP diet; format: in vivo, rat; details: aging rats 18 months, 2.5% diet, six weeks
From the text: Aging rats (I 8 months, 500 g) were fed a control diet or a diet containing 2.5% UMP diets for six weeks. They were then shown a hidden platform in a six-foot diameter pool of water, placed somewhere in each of the four quadrants of the pool in turn, and were allowed 90 seconds in each trial to attempt to relocate the platform by swimming, and the swimming time “mean escape latency” recorded. The set of four trials was repeated on each of four consecutive days. The platform was in the same place each day. This test, known as the Morris water maze, is an indicator of spatial memory.

rats [8] = details: EC and IC rats, choline-supplemented vs control diet
From the text: (§3) Animals were maintained as described for Example 13. For the first experiment (FIGS. 24-26), male pups were removed at postnatal d 23, separated into small groups, and allowed to acclimatize for 1 week. Pups were assigned to either the […] or IC condition; rats were matched according to body weight at PN day 23. […] Thus rats were fed the diets and were enriched or impoverished from 30-120 d of age.
(§4) The water maze was a black circular tank 1.83 m in diameter and 0.55 m in height, filled with water (25 C) to a depth of 20 cm and located in a room containing several extramaze cues. Four starting positions (N, S, E, and W) were spaced around its perimeter, dividing the pool into 4 equal quadrants. The rectangular clear Plexiglas escape platform used for the spatial task (11×14×19 cm) was submerged at a depth of […]. For the cured version of the water maze, a white rubber ball 8 cm in diameter attached to the top of the submerged platform protruded above the water surface. The platform could be used as a step to mount the ball to escape from the water.

rats [9] = details: IC rats
Experimental: as §1, §2, §3
For the second experiment, 4 groups of IC rats were utilized, as depicted below:
Four diets were prepared containing different amounts of CDP-choline. Mean weekly intakes were monitored for all rats, and the diets were adjusted so that rats would receive 500 mg/kg/d.
as §4

[10] = aged rats, UMP diet 1 week or 6 weeks vs control
[11] = 500 mg/kg/d for 3 mo, 4 d of training

O=c1ccn([C@@H]2O[C@H](COP(=O)([O-])[O-])[C@@H](O)[C@H]2O)c(=O)[nH]1.[Na+].[Na+] [UMP, uridine-5′-monophosphate disodium]
Brain CDP-choline levels [1]: rose significantly in a linear fashion | Striatal-based (stimulus-response) memory, visible platform water maze (Sprague Dawley rats [2]): little or no effect | Reference memory errors (gerbils [3]): reduced numbers | Working memory errors (gerbils [3]): reduced numbers | Basal DA levels in striatal dialysate (Fischer 344 rats; aged rats, 2.5% UMP diet 1 or 6 weeks vs control): did not affect | K+-evoked striatal DA release (basal = 100%) (Fischer 344 rats; aged rats, 2.5% UMP diet 1 week, not significant): 316±15% | K+-evoked striatal DA release (basal = 100%) (Fischer 344 rats; aged rats, 2.5% UMP diet 6 weeks): 341±21% | Basal DOPAC levels in striatal dialysate (Fischer 344 rats; [10]): no effects | Basal HVA levels in striatal dialysate (Fischer 344 rats; [10]): no effects | Basal release of acetylcholine in corpus striatum (Fischer 344 rats; rats, dietary UMP): increase the basal release | Mean body weights ([4]; Sprague Dawley EC/IC rats, 0.1% UMP-2Na+ diet, vs control groups): No significant differences in mean body weights | Body weight ([4]; aged Fischer 344 rats, 2.5% UMP-2Na+ diet, 0-6 weeks): neither UMP-diet (vs. control) nor UMP×time interaction affected body weight | Time required to find the food pellets, radial arm maze (gerbils [5]): reduced the time required for gerbils to find the pellet in a dose-dependent manner | Rate of acquisition of hidden platform water maze task (Sprague Dawley rats [6]; EC rats, vs EC-CONT (P<0.09)): acquired the task at a faster rate than EC-CONT rats | Rate of acquisition of hidden platform water maze task (Sprague Dawley rats [6]; IC rats, vs IC-CONT): acquired the task at a significantly faster rate than did IC-CONT rats | Time in the correct quadrant, 60 s probe test (Sprague Dawley rats [6]; IC rats, UMP diet, vs IC-CONT): spent significantly more time in the correct quadrant than IC-CONT rats | Plasma uridine levels [7]: increased in response to oral UMP in a dose-dependent fashion | Time required to reach the platform (mean escape latency), Morris water maze (Aging rats): statistically significant reduction in the time required to reach the location of the platform

cytidine-diphosphocholine
Escape latencies, visible platform task (rats [8]): No main effects of diet | Escape latencies of initial trials on last 3 d of spatial training (rats [9]; 500 mg/kg/d for 3 mo): restored normal behavior | Swim time in target quadrant, 60-sec probe test (rats [9]; 500 mg/kg/d for 3 mo): restored normal behavior | Distance traveled to find the hidden platform (rats [9]; [11]): restored normal behavior | Escape latencies, hidden platform task (rats [9]; [11]): exhibited normal latencies | Escape latencies, hidden platform task (second experiment) (rats [9]; high-choline diet for 3 mon vs untreated IC rats): different significantly from untreated IC rats | Swim time in target quadrant, 60-sec probe test (second experiment) (rats [9]; high-choline diets for 3 mon): swam for a significantly longer time in the target quadrant
